Laboratory results reported in patent US20210101879A1, “AMYLOID PROTEIN-SELECTIVE BACE INHIBITORS (ASBIs) FOR ALZHEIMER?S DISEASE” (The Regents of the University of California, priority 2018, published 2021).
Values joined by “and” are separate entries in the source; they are usually repeats but may differ in a detail not shown here. Identical values can stand only once. Like-named read-outs stand apart in the source and are kept apart here.

Experiments:
BACE-1 = BACE-1 (Homo sapiens (Human), UniProt P56817); assay: cell-free BACE enzyme assay with P5-P5′ substrate; format: biochemical
BACE-1, sequence (P56817 46-501): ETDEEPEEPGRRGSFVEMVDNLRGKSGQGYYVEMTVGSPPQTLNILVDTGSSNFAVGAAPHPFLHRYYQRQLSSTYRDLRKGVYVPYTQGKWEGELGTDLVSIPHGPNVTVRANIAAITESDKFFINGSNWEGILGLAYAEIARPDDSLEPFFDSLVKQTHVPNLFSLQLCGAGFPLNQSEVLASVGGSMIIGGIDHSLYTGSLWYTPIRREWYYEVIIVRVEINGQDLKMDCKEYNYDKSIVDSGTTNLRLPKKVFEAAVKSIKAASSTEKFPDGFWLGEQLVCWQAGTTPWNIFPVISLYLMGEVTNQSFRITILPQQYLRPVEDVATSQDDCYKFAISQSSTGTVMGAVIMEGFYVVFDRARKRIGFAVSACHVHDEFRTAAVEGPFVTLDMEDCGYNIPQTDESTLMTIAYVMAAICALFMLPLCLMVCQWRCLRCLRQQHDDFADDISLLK
Protocol: For the assay, 4 μL of assay buffer was added to each well, followed by 2 μL of BACE-1 diluted in assay buffer to 7.5 ng/μL. Then, 2 μL of inhibitor, at concentrations along an 11 pt. two-fold dilution series starting at 0.5 μM, were added to appropriate wells and incubated for 30 minutes at room temperature. Afterwards, 2 μL of P5-P5′ BACE-1 substrate, diluted to 50 μM in assay buffer, were added to each well, after which the signal generated was read every 30 minutes at 25° C. for 2 hr.

PAMPA = format: in vitro ADME
Cathepsin D (CatD) = Cathepsin D (CatD) (Homo sapiens (Human), UniProt P07339); assay: Cathepsin-D assay; format: biochemical
Cathepsin D (CatD), sequence (P07339 65-412, species assumed): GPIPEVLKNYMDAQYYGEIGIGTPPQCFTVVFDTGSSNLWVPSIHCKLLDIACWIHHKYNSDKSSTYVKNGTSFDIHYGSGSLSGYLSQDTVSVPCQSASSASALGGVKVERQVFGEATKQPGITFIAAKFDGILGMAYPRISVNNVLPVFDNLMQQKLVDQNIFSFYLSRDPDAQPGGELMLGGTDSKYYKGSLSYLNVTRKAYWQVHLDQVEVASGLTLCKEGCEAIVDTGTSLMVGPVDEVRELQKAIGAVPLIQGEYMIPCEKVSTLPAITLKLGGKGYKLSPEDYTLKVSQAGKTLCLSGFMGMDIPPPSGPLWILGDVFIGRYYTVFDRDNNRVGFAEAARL
Protocol: For the assay, 4 μL of assay buffer was added to each well, followed by 2 μL of Cathepsin D (CatD) diluted in assay buffer to 5 ng/μL. Then, 2 μL of inhibitor, prepared to get a testing concentration of 20 μM, were added to appropriated wells and incubated for 30 minutes at room temperature. Afterwards, 2 μL of CatD substrate, diluted to 50 μM in assay buffer, were added to each well, after which the signal generated was read every 30 minutes at 25° C. for 1 hr. Signals shown in FIG. 6 are representative of readings at 1 hr.

[1] = system: CHO-7W cells (stably transfected with human amyloid precursor protein wildtype); assay: CHO-7W cell assay (AlphaLISA of media); format: cell-based, Chinese hamster; settings: treatment for 24 hours
Protocol: For the assay, 50 μL of CHO-7W cells were added to each well at 4×10^5 cells/mL. Then, 50 μL of inhibitor, prepared for tested concentrations, were added to appropriated wells and incubated for 24 hours at 37° C. Afterwards, media from each well is collected and assayed using an AlphaLISA assay for respective analytes.

pharmacokinetics in mice = format: in vivo
[2] = cell-free, several replicate values per cell, some flagged 's' (flag not defined), read-out: BACE1 IC50

Row | Structure (SMILES) | IC50 (BACE-1; [2]) | PAMPA (PAMPA) | further results
1 | CN1C(=O)C(C)(c2cccc(-c3cncnc3)c2)N=C1N (stereo not shown) [FAH-100] | 2310 nM and 4850 nM | 0.27 | 
2 | CC1CCN(c2cccc(C3(c4ccc(OC(F)F)cc4)N=C(N)N(C)C3=O)c2)C1 (stereo not shown) [FAH-88] | 840 nM and 600 nM and 2130 nM | 4.53 2-peaks | 
3 | CCCC1CC(C2(c3ccc(OC(F)F)c(C)c3)N=C(N)N(C)C2=O)CCN1C (stereo not shown) [FAH-68] | 16100 nM | 0.20 | 
4 | Cc1cccc(C2(c3cccc(-c4cccnc4)c3)N=C(N)N(C)C2=O)c1 (stereo not shown) [FAH-75] | 210 nM and 240 nM and 150 nM and 420 nM | 0.62 | 
5 | Cc1ncc(-c2cccc(C3(C4CC4)N=C(N)N(C)C3=O)c2)cn1 (stereo not shown) [FAH-107] | 8870 nM and 4930 nM and 6880 nM | 0.40 | 
6 | CN1C(=O)C(c2cccc(-c3cncnc3)c2)(c2ccc3c(c2)OCCO3)N=C1N (stereo not shown) [FAH-135] | 210 nM | 0.26 | 
7 | Cc1cc(C2(c3cccc(C4CNC4)c3)N=C(N)N(C)C2=O)ccc1OC(F)F (stereo not shown) [FAH-64] |  | 0.35 | 
8 | Cc1cc(C2(c3cncnc3)N=C(N)N(C)C2=O)ccc1OC(F)F (stereo not shown) [FAH-33] | > 5000 nM | 0.24 | 
9 | Cc1cc(C2(c3cccc(F)c3)N=C(N)N(Cc3ccccc3)C2=O)ccc1OC(F)F (stereo not shown) [FAH-42] |  | 2.29 | 
10 | Cc1cc(C2(C3CCN(C)CC3)N=C(N)N(C)C2=O)ccc1OC(F)F (stereo not shown) [FAH-67] |  | 0.20 | 
11 | Cc1cc(C2(c3cncc(F)c3)N=C(N)N(C)C2=O)ccc1OC(F)F (stereo not shown) [FAH-37] | 1930 nM | 0.54 | 
12 | CC#Cc1cncc(-c2cc(C3(c4ccnc(C(F)F)c4)N=C(N)N(C)C3=O)ccc2F)c1 (stereo not shown) [FAH-152] | 20 nM | 0.46 | 
13 | Cc1cc(C2(c3cccc(F)c3)N=C(N)N(C)C2=S)ccc1OC(F)F (stereo not shown) [FAH-31] | 4340 nM and 3960 nM | 3.07 | 
14 | Cc1cc(C2(C3CCCC(c4cncnc4)C3)N=C(N)N(C)C2=O)ccc1OC(F)F (stereo not shown) [FAH-85] | 220 nM | 0.51 2 peaks | 
15 | Cc1cc(C2(c3cocn3)N=C(N)N(C)C2=O)ccc1OC(F)F (stereo not shown) [FAH-38] | > 5000 nM | 3.46 | 
16 | CN1C(=O)C(c2cccc(-c3cncnc3)c2)(c2ccc3c(c2)CCO3)N=C1N (stereo not shown) [FAH-117] | 1370 nM and 410 nM | 0.32 | 

Row | Structure (SMILES) | IC50 (BACE-1; [2]) | PAMPA (PAMPA) | further results
17 | CC#Cc1cc(C2(c3ccc(OC(F)F)c(C)c3)N=C(N)N(C)C2=O)ccn1 (stereo not shown) [FAH-57] | 440 nM and 510 nM | 0.61 | amyloid-beta (Aβ) [1]: significantly decreased; soluble amyloid precursor protein beta (sAPPβ) [1]: significantly decreased
18 | Cc1cc(C2(C3CCCCC3)N=C(N)N(C)C2=O)ccc1OC(F)F (stereo not shown) [FAH-59] | 720 nM | 4.43 | 
19 | CN1C(=O)C(c2cccc(-c3cncnc3)c2)(c2ccc3c(c2)OCO3)N=C1N (stereo not shown) [FAH-136] | 250 nM | 0.30 | 
20 | CC#Cc1cncc(-c2cccc(C3(C(C)C)N=C(N)N(C)C3=O)c2)n1 (stereo not shown) [FAH-101] |  | 1.71 | 
21 | CN1C(=O)C(c2cc(-c3cncc(F)c3)ccc2F)(C2CC2)N=C1N (stereo not shown) [FAH-126] |  |  | BACE1 IC50 (μM) (BACE-1; cell-free, several replicate values per cell, some flagged 's' (flag not defined)): inactive
22 | CCCc1cncc(-c2cccc(C3(C(C)C)N=C(N)N(C)C3=O)c2)n1 (stereo not shown) [FAH-106] | 2180 nM and 3160 nM | 2.36 | 
23 | CN1C(=O)C(c2ccc(OC(F)F)cc2)(c2cccc(-c3cncnc3)c2)N=C1N (stereo not shown) [FAH-74] | 4.2 nM and 2.5 nM and 5.7 nM and 7.5 nM and 15 nM and 23 nM | 0.36 | IC50 (BACE-1; cell-free BACE assay): 13 nM
24 | CN1C(=O)C(c2cccc(-c3cncnc3)c2)(c2ccc3occc3c2)N=C1N (stereo not shown) [FAH-116] | 270 nM and 260 nM | 0.52 | 
25 | Cc1cc(C2(C3CCCC(c4ncco4)C3)N=C(N)N(C)C2=O)ccc1OC(F)F (stereo not shown) [FAH-69] | 110 nM and 210 nM and 120 nM and 430 nM | 0.92 | 
26 | CN1C(=O)C(c2cnc(OC(F)F)nc2)(c2cccc(F)c2)N=C1N (stereo not shown) [FAH-83] | 2910 nM and 2330 nM and 9190 nM | 0.51 and 0.53 | 
27 | Cc1cc(C2(c3cc(-c4cncnc4)ccc3F)N=C(N)N(C)C2=O)ccc1OC(F)F (stereo not shown) [FAH-156] | 200 nM | 0.25 | 
28 | Cc1cc(C2(c3cccc(NC(=O)N(C)C)c3)N=C(N)N(C)C2=O)ccc1OC(F)F (stereo not shown) [FAH-99] | 150 nM and 210 nM | 0.38 | 
29 | CN1C(=O)C(c2cccc(-c3cncnc3)c2)(c2ccc3c(c2)OC(F)(F)O3)N=C1N (stereo not shown) [FAH-137] | 460 nM | 0.59 | 
30 | CNCCc1cccc(C2(c3ccc(OC(F)F)c(C)c3)N=C(N)N(C)C2=O)c1 (stereo not shown) [FAH-63] |  | 0.38 | 
31 | CN1C(=O)C(c2ccc(OCF)cc2)(c2cccc(-c3cncnc3)c2)N=C1N (stereo not shown) [FAH-84] |  | 0.30 | 

The next lines start with results.

Row | IC50 (BACE-1; [2]) | PAMPA (PAMPA) | Structure (SMILES) | further results
32 | 4350 nM | 0.68 | COc1cc(C2(c3ccc(OC(F)F)c(C)c3)N=C(N)N(C)C2=O)ccn1 (stereo not shown) [FAH-48] | 
33 | 11 nM and 16 nM and 17 nM | 0.91 and 0.92 | Cc1cc(C2(c3cccc(-c4cccnc4)c3)N=C(N)N(C)C2=O)ccc1OC(F)F (stereo not shown) [FAH-32] | IC50 (Cathepsin D (CatD)): > 100000 nM
34 | 47 nM and 38 nM | 0.46 | Cc1cc(C2(c3cccc(-c4cnc(N)nc4)c3)N=C(N)N(C)C2=O)ccc1OC(F)F (stereo not shown) [FAH-110] | IC50 (BACE-1; cell-free BACE assay): 43 nM
35 |  | 0.26 | COCc1cc(C2(c3ccc(OC(F)F)c(C)c3)N=C(N)N(C)C2=O)ccn1 (stereo not shown) [FAH-53] | 
36 |  | 0.91 | COCc1cccc(C2(c3ccc(OC(F)F)c(C)c3)N=C(N)N(C)C2=O)c1 (stereo not shown) [FAH-44] | 
37 | 3050 nM | 0.46 | Cc1cc(C2(c3ccc(OC(F)F)c(C)c3)N=C(N)N(C)C2=O)ccn1 (stereo not shown) [FAH-47] | 
38 | 80 nM and 110 nM | solubility issue | Cc1cc(C2(c3cccc(-c4cncc(C5CC5)c4)c3)N=C(N)N(C)C2=O)ccc1OC(F)F (stereo not shown) [FAH-111] | 
39 | 2990 nM | 0.65 | Cc1cc(C2(c3ccnc(F)c3)N=C(N)N(C)C2=O)ccc1OC(F)F (stereo not shown) [FAH-46] | 
40 |  | 0.35 | CNCc1cccc(C2(c3ccc(OC(F)F)c(C)c3)N=C(N)N(C)C2=O)c1 (stereo not shown) [FAH-62] | 
41 | 780 nM and 450 nM and 2400 nM |  | Cc1cc(C2(c3cccc(-c4ccco4)c3)N=C(N)N(C)C2=O)ccc1OC(F)F (stereo not shown) [FAH-82] | 
42 | 530 nM and 690 nM | 5.11 | Cc1cc(C2(c3cccc(-c4ccccc4)c3)N=C(N)N(C)C2=O)ccc1OC(F)F (stereo not shown) [FAH-73] | 
43 |  | 0.68 | Cc1cc(C2(c3cccc(-c4cnccn4)c3)N=C(N)N(C)C2=O)ccc1OC(F)F (stereo not shown) [FAH-86] | IC50 (Cathepsin D (CatD)): > 50000 nM
44 | 18 nM and 12 nM and 19 nM and 47 nM and 28 nM and 36 nM | 1.15 | Cc1cc(C2(c3cccc(-c4cncc(F)c4)c3)N=C(N)N(C)C2=O)ccc1OC(F)F (stereo not shown) [FAH-66] | amyloid-beta (Aβ) [1]: significantly decreased; soluble amyloid precursor protein beta (sAPPβ) [1]: significantly decreased
45 | 300 nM and 340 nM and 420 nM and 290 nM | 0.58 | Cc1cc(C2(c3cccc(-c4ccncn4)c3)N=C(N)N(C)C2=O)ccc1OC(F)F (stereo not shown) [FAH-87] | 
46 | 140 nM and 100 nM and 49 nM and 87 nM and 93 nM | 0.37 | Cc1cc(C2(c3cccc(-c4ccnnc4)c3)N=C(N)N(C)C2=O)ccc1OC(F)F (stereo not shown) [FAH-72] | 
47 | 140 nM and 230 nM and 490 nM | 0.79 | Cc1cc(C2(c3cccc(-c4cnco4)c3)N=C(N)N(C)C2=O)ccc1OC(F)F (stereo not shown) [FAH-43] | amyloid-beta (Aβ) [1]: significantly decreased; soluble amyloid precursor protein beta (sAPPβ) [1]: significantly decreased
48 | 14 nM and 13 nM and 5 nM and 24.6 nM | 0.53 and 0.49 and 0.50 | Cc1cc(C2(c3ccc(F)c(-c4cncnc4)c3)N=C(N)N(C)C2=O)ccc1OC(F)F (stereo not shown) [FAH-127, 2-amino-5-(4-(difluoromethoxy)-3-methylphenyl)-5-(4-fluoro-3-(pyrimidin-5-yl)phenyl)-3-methyl-3,5-dihydro-4H-imidazol-4-one] | IC50 (BACE-1; cell-free BACE assay): 13 nM; brain penetrance (pharmacokinetics in mice): good brain-penetrance; brain peak (pharmacokinetics in mice; at 1 hour): ~3000 (range 600-6000) ng/g
